From US7855292B2, “Sulfonamide compounds” (Janssen Pharmaceutica NV, priority 2004, dated 2010)

How the values were obtained:
CCK2 receptor [1] = biological target: T1, CCK2 receptor (Cavia porcellus, UniProt H0VZC5); test: Guinea-pig gastric corpeal muscle assay (pentagastrin-induced contraction); conditions: isolated guinea-pig gastric corpeal muscle strips, pentagastrin concentration-response curves
T1 construct: strips of muscle were dissected and suspended in isolated tissue organ baths; from tissue; host or cells: guinea-pig gastric corpeal muscle strips
T1 sequence (H0VZC5 1-426): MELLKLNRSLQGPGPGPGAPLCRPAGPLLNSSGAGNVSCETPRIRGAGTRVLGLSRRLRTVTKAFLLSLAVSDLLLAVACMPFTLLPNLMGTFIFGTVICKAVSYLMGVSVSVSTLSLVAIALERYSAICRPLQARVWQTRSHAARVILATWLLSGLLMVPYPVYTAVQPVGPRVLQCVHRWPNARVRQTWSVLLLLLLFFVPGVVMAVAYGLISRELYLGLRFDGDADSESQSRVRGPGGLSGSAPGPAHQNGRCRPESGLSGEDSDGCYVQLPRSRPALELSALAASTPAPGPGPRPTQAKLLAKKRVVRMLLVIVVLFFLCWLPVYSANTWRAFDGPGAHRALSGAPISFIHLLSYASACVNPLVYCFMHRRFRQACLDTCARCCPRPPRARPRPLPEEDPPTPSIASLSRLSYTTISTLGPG
Experimental: B. Guinea-Pig Gastric Corpeal Muscle Assay
CCK2 receptor-mediated muscle contraction was measured in an isolated muscle-strip assay of guinea-pig gastric corpeal muscle according to the methods described by Roberts et al. (S. P. Roberts, E. A. Harper, G. F. Watt, V. P. Gerskowitch, R. A. Hull, N. P. Shankley, and J. W. Black, Br. J. Pharmacol., 1996, 118(7):1779-1789). In brief, strips of muscle were dissected and suspended in isolated tissue organ baths for isotonic muscle contraction recording. The baths, containing Krebs-Henseleit solution, were maintained at 24° C. and gassed continuously with 95% O2 and 5% CO2. CCK1 receptors known to be present in this assay were blocked using a selective concentration of a suitable CCK1 receptor antagonist (e.g. 2-NAP). The effectiveness of the test compounds was assessed by measuring their effect on contractile concentration-response curves obtained using a well-characterized surrogate for the hormone gastrin (pentagastrin).

CCK2 receptor [2] = biological target: T2, CCK2 receptor (Homo sapiens, UniProt P32239); test: CCK2 binding assay ([125I]-BH-CCK-8S displacement, HEKZFP membranes); conditions: membranes of doxycycline-induced HEKZFP cells; 20 pM [125I]-BH-CCK-8S; 60 min at 21±3° C.; read-out: CCK2 pKi (converted)
T2 construct: analyzed for ZFP expression as well as CCK2R induction upon addition of doxycycline to the culture medium; endogenous in cells
T2 sequence (P32239 1-447): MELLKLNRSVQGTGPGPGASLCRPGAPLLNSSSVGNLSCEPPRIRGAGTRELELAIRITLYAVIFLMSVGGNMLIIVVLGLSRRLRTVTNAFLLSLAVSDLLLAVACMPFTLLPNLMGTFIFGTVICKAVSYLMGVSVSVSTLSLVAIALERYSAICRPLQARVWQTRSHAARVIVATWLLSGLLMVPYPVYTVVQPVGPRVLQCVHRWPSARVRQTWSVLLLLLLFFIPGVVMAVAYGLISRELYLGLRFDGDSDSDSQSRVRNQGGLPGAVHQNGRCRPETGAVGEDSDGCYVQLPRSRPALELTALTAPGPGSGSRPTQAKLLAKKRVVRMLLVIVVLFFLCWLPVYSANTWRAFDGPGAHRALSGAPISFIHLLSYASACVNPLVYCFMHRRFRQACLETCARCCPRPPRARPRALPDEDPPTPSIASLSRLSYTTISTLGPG

SMILES: O=C(N[C@@H](Cc1ccc(Cl)c(Cl)c1)C(=O)O)c1ccc(I)cc1NS(=O)(=O)c1cccc2nsnc12 [Example 2, (S)-2-[2-(Benzo[1,2,5]thiadiazole-4-sulfonylamino)-4-iodo-benzoylamino]-3-(3,4-dichloro-phenyl)-propionic acid]
- behaviour in the muscle contraction assay (mode of antagonism) (CCK2 receptor [1]): competitive antagonist
- Kb (CCK2 receptor [1]; CCK1 receptors blocked (e.g. 2-NAP), 24° C.): 0.00158 µM
- Ki (CCK2 receptor [2]): 0.0316 µM
